Laboratory results taken from ChEMBL document CHEMBL5634193, “Discovery of CVN293, a Brain Permeable KCNK13 (THIK-1) Inhibitor Suitable for Clinical Assessment” (ACS Med Chem Lett, 2024).
In brackets after ≈: the same amount, converted by molar mass. Activity calls are given as the source filed them. No cut-off for these calls is given here.

Assays:
[1] = Protein binding in mouse plasma assessed as unbound fraction by equilibrium dialysis; format: ADME, cell-free
[2] = Half life in Beagle dog at 1 mg/kg, iv; format: ADME, organism-based, Canis lupus familiaris; conditions: in vivo
[3] = molecular target: Voltage-gated inwardly rectifying potassium channel KCNH2 (Homo sapiens, UniProt Q12809); assay: Inhibition of hERG; format: toxicity
[4] = Half life in Sprague-Dawley rat at 3 mg/kg, po; format: ADME, organism-based; conditions: in vivo
[5] = C0 in Beagle dog at 1 mg/kg, iv; format: ADME, organism-based, Canis lupus familiaris; conditions: in vivo
Mus musculus = species: Mus musculus; assay: Effect on IL-1beta release in LPS-induced C57Bl6 mouse hippocampus upto 5 uM treated for 1 hr by ELISA; format: functional, tissue-based
[6] = AUC (0 to infinity) in Sprague-Dawley rat at 3 mg/kg, po; format: ADME, organism-based; conditions: in vivo
[7] = C0 in Cynomolgus monkey at 1 mg/kg, iv; format: ADME, organism-based, Macaca fascicularis; conditions: in vivo
[8] = Clearance in Beagle dog at 1 mg/kg, iv; format: ADME, organism-based, Canis lupus familiaris; conditions: in vivo
[9] = Oral bioavailability in Cynomolgus monkey at 3 mg/kg; format: ADME, organism-based, Macaca fascicularis; conditions: in vivo
[10] = Half life in Cynomolgus monkey at 1 mg/kg, iv; format: ADME, organism-based, Macaca fascicularis; conditions: in vivo
[11] = Cmax in Sprague-Dawley rat at 3 mg/kg, po; format: ADME, organism-based; conditions: in vivo
[12] = Clearance in Cynomolgus monkey at 1 mg/kg, iv; format: ADME, organism-based, Macaca fascicularis; conditions: in vivo
[13] = molecular target: NACHT, LRR and PYD domains-containing protein 3 (Mus musculus) (UniProt Q8R4B8); assay: Inhibition of NLRP3 inflammasome-mediated IL-1beta release in LPS/ATP-induced C57Bl6 mouse hippocampus at 1 uM pretreated for 1 hr followed by ATP addition measured after 3 hrs by ELISA; format: tissue-based; conditions: time 4.0 hrs
[14] = molecular target: Sodium channel protein type 5 subunit alpha (Homo sapiens, UniProt Q14524); assay: Inhibition of NaV1.5 (unknown origin); format: toxicity
[15] = Unbound drug concentration in C57BL/6 mouse plasma at 10 mg/kg, po measured after 4 hrs by LC-MS/MS analysis; format: ADME, organism-based; conditions: in vivo
[16] = Half life in Sprague-Dawley rat at 0.5 mg/kg, iv; format: ADME, organism-based; conditions: in vivo
[17] = Kinetic aqueous solubility of compound at pH 7.4; format: physicochemical; conditions: buffer, read-out: Kinetic_solubility
[18] = Tmax in Beagle dog at 10 mg/kg, po; format: ADME, organism-based, Canis lupus familiaris; conditions: in vivo
HEK293 = assay: Inhibition of recombinant human KCNK6 transfected in HEK293 cells assessed as reduction in thallium influx at 30 uM incubated for 15 mins in dark by FLIPR assay relative to control; format: cell-based
[19] = molecular target: T1, Potassium channel subfamily K member 13 (Homo sapiens) (UniProt Q9HB14); assay: Inhibition of human KCNK13 transfected in HEK293 cells assessed as reduction in thallium influx incubated for 15 mins in dark by FLIPR assay relative to control; format: cell-based
T1 sequence (whole entry): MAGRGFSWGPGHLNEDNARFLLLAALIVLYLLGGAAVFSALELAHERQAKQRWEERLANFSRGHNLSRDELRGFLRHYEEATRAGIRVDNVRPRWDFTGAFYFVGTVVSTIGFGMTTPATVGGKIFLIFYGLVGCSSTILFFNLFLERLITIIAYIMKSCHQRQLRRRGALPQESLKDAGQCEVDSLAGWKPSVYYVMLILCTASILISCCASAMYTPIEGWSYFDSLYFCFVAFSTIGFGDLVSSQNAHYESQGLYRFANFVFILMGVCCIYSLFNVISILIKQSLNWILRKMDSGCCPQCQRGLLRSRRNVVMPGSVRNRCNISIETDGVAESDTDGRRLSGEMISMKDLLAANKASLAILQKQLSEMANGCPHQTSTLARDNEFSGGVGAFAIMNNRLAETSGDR

[20] = C0 in Sprague-Dawley rat at 0.5 mg/kg, iv; format: ADME, organism-based; conditions: in vivo
[21] = AUC (0 to infinity) in Cynomolgus monkey at 3 mg/kg, po; format: ADME, organism-based, Macaca fascicularis; conditions: in vivo
[22] = molecular target: T2, Potassium channel subfamily K member 13 (Mus musculus) (UniProt Q8R1P5); assay: Inhibition of mouse KCNK13 transfected in HEK293 cells assessed as reduction in thallium influx incubated for 15 mins in dark by FLIPR assay relative to control; format: cell-based
T2 sequence (whole entry): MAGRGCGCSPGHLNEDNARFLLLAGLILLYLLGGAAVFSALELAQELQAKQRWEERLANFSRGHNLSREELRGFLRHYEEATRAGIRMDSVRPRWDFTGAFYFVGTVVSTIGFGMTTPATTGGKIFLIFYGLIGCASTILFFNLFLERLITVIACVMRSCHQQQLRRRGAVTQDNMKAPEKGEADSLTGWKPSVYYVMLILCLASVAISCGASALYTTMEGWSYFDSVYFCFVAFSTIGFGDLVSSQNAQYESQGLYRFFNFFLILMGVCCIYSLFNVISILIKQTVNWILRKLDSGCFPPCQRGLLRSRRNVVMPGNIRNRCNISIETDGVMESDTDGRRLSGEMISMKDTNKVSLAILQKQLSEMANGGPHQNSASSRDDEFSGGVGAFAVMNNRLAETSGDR

[23] = Ratio of drug concentration in brain to plasma C57BL/6 mouse at 10 mg/kg, po measured after 4 hrs by LC-MS/MS analysis; format: ADME, organism-based; conditions: brain and plasma, read-out: BPR
[24] = Cmax in Cynomolgus monkey at 3 mg/kg, po; format: ADME, organism-based, Macaca fascicularis; conditions: in vivo
[25] = Metabolic stability in mouse liver microsomes assessed as intrinsic clearance; format: ADME, Microsome; conditions: read-out: CLH
[26] = Protein binding in mouse brain assessed as unbound fraction by equilibrium dialysis; format: ADME, tissue-based
[27] = Cmax in Beagle dog at 10 mg/kg, po; format: ADME, organism-based, Canis lupus familiaris; conditions: in vivo
[28] = Volume of distribution at steady state in Cynomolgus monkey at 1 mg/kg, iv; format: ADME, organism-based, Macaca fascicularis; conditions: in vivo, read-out: Vdss
[29] = AUC (0 to infinity) in Beagle dog at 1 mg/kg, iv; format: ADME, organism-based, Canis lupus familiaris; conditions: in vivo
[30] = AUC (0 to infinity) in Cynomolgus monkey at 1 mg/kg, iv; format: ADME, organism-based, Macaca fascicularis; conditions: in vivo
[31] = Ratio of unbound drug concentration in brain to plasma C57BL/6 mouse at 10 mg/kg, po measured after 4 hrs by LC-MS/MS analysis; format: ADME, organism-based; conditions: brain and plasma, read-out: K(p,uu,brain)
[32] = Volume of distribution at steady state in Beagle dog at 1 mg/kg, iv; format: ADME, organism-based, Canis lupus familiaris; conditions: in vivo, read-out: Vdss
[33] = Volume of distribution at steady state in Sprague-Dawley rat at 0.5 mg/kg, iv; format: ADME, organism-based; conditions: in vivo, read-out: Vdss
[34] = AUC (0 to infinity) in Sprague-Dawley rat at 0.5 mg/kg, iv; format: ADME, organism-based; conditions: in vivo
[35] = molecular target: NACHT, LRR and PYD domains-containing protein 3 (Mus musculus) (UniProt Q8R4B8); assay: Inhibition of NLRP3 inflammasome-mediated IL-1beta release in LPS-primed neonatal C57BL/6 P1-4 mouse microglia pretreated for 30 mins followed by media removal and compound re-addition with K+-free buffer measured after 2 hrs by ELISA relative to control; format: cell-based; conditions: time 150.0 min
[36] = AUC (0 to infinity) in Beagle dog at 10 mg/kg, po; format: ADME, organism-based, Canis lupus familiaris; conditions: in vivo
[37] = Half life in Cynomolgus monkey at 3 mg/kg, po; format: ADME, organism-based, Macaca fascicularis; conditions: in vivo
[38] = Tmax in Sprague-Dawley rat at 3 mg/kg, po; format: ADME, organism-based; conditions: in vivo

Chain of NACHT, LRR and PYD domains-containing protein 3 (Mus musculus) (Q8R4B8 whole entry, the tested form may be a part): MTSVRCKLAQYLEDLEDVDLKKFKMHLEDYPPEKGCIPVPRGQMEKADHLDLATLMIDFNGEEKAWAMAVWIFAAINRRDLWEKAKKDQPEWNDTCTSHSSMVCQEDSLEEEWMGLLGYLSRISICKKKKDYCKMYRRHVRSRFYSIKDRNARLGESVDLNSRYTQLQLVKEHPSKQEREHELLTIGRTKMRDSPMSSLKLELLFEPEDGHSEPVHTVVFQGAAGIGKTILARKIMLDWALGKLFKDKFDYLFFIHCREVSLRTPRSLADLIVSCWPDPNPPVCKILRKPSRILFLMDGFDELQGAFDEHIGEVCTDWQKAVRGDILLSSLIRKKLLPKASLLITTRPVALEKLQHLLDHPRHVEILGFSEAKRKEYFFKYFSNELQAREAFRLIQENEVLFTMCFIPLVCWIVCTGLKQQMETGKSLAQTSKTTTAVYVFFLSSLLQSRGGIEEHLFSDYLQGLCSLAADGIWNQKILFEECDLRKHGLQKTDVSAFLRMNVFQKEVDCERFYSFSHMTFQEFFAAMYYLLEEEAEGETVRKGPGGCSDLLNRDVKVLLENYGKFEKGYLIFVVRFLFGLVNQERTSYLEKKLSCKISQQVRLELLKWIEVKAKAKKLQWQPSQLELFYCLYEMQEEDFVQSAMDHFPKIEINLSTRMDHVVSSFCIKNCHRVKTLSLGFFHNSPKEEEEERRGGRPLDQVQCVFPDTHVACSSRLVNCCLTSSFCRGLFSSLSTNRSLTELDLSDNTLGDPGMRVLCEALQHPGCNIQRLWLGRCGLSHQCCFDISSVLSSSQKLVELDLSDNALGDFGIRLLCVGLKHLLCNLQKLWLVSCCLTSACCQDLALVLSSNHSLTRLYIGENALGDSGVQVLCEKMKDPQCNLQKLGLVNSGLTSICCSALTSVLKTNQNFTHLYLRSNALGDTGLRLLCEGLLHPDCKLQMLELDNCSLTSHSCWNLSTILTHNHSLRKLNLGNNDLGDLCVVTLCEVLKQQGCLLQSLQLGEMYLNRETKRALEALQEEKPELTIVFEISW
Chain of Sodium channel protein type 5 subunit alpha (Q14524 whole entry): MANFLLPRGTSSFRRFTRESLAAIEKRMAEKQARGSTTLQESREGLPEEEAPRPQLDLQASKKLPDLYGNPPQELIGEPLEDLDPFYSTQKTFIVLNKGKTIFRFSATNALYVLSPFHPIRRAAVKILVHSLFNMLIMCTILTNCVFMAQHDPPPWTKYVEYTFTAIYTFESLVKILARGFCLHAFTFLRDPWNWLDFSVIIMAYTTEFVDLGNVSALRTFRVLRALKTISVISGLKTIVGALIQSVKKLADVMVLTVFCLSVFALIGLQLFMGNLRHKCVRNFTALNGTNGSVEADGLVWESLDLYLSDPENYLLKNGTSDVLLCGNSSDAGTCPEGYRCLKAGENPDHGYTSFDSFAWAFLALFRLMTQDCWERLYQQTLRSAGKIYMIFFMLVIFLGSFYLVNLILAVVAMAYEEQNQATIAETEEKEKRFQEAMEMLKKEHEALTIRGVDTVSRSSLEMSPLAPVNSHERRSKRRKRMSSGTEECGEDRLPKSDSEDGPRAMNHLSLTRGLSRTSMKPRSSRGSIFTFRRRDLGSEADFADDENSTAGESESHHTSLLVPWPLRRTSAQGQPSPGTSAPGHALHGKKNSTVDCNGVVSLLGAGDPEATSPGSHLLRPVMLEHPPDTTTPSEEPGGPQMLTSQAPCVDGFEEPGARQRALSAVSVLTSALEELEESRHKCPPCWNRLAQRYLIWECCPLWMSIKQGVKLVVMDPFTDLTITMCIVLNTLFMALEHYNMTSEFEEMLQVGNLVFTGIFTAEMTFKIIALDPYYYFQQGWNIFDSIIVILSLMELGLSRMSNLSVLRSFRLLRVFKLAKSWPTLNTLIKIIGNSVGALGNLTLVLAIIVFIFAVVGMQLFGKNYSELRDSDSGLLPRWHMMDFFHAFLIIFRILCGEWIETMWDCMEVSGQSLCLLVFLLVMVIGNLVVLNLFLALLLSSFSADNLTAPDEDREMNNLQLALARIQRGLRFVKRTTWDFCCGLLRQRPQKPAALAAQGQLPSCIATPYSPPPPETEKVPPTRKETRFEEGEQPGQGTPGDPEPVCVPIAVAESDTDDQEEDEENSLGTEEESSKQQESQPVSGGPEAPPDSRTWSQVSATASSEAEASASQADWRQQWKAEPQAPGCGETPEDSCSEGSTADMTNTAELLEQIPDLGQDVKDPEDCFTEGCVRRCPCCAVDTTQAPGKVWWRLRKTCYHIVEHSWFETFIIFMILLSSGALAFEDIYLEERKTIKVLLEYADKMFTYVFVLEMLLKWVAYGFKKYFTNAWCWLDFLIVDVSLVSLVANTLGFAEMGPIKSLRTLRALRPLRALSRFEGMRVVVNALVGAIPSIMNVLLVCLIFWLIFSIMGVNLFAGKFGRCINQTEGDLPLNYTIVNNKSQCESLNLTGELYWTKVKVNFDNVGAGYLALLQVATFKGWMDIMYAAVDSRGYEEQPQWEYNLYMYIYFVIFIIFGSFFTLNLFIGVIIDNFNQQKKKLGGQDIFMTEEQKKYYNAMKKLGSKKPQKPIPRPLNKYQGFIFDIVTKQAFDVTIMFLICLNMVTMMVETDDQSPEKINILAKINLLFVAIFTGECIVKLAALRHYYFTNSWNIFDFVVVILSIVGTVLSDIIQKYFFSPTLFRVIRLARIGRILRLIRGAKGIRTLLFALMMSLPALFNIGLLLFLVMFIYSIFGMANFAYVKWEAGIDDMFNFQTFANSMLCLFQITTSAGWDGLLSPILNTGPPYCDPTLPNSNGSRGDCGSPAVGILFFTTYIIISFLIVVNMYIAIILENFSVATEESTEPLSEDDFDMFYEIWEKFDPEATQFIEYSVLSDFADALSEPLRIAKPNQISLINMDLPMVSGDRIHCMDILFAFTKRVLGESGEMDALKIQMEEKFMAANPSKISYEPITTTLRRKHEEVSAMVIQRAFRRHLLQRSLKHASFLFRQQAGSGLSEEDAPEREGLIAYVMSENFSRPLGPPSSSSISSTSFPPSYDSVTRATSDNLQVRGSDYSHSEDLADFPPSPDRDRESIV
Chain of Voltage-gated inwardly rectifying potassium channel KCNH2 (Q12809 whole entry): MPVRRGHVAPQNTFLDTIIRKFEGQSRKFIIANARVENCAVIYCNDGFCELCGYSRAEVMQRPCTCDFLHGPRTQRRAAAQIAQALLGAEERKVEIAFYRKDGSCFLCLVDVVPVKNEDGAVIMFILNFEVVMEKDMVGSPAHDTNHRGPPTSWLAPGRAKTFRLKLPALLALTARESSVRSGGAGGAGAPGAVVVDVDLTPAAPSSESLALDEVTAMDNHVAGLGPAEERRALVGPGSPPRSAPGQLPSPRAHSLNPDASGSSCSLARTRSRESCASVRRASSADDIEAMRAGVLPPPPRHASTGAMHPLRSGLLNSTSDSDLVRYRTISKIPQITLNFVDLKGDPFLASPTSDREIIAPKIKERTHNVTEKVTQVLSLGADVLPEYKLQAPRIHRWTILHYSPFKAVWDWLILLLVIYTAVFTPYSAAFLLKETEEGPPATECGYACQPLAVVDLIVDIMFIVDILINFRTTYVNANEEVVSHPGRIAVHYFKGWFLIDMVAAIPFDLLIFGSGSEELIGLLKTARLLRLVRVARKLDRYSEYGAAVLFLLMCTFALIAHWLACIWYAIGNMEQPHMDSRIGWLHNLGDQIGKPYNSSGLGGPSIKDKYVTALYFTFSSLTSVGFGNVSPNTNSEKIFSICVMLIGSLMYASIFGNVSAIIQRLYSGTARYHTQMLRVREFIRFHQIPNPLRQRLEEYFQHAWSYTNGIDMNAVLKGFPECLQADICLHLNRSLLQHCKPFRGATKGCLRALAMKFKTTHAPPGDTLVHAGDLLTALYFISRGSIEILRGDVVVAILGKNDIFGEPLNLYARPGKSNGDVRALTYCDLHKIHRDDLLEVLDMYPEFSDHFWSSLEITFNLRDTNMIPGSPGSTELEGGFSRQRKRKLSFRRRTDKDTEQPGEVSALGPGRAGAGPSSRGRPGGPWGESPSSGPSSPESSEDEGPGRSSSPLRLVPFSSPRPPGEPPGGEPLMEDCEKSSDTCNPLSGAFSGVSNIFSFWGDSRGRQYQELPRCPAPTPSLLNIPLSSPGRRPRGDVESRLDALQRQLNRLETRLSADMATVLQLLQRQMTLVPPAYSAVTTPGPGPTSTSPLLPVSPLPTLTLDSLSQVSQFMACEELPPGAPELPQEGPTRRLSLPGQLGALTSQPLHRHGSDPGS

Question: For `Nc1nonc1-c1nc2cccc(F)c2n1Cc1cccnn1`, which fraction unbound [1] is on record?
Answer: The fraction unbound was 0.173.

Question: What about the half-life [2] of the same compound?
Answer: The half-life was 0.5 h.

Question: And the “inhibition (INH)” value [3]?
Answer: The value was “Not Active”.

Question: And the half-life [4]?
Answer: The half-life was 2 h.

Question: And the C0 [5]?
Answer: Its C0 is 626 ng/mL.

Question: And the Activity (Mus musculus)?
Answer: Its Activity is “inactive”.

Question: What about the AUC(0-inf) [6] of the same compound?
Answer: Its AUC(0-inf) is 1240 ng·h/mL.

Question: And the C0 [7]?
Answer: Its C0 is 896 ng/mL.

Question: What about the clearance [8] of the same compound?
Answer: Its clearance is 38 mL/min/kg.

Question: What about the bioavailability [9] of the same compound?
Answer: Its bioavailability is 24%.

Question: What about the half-life [10] of the same compound?
Answer: The half-life was 1.1 h.

Question: What about the Cmax [11] of the same compound?
Answer: Its Cmax is 468 ng/mL.

Question: And the clearance [12]?
Answer: The clearance was 22 mL/min/kg.

Question: What about the inhibition [13] of the same compound?
Answer: The inhibition was “Active”.

Question: And the “inhibition (INH)” value [14]?
Answer: Its value is “Not Active”.

Question: And the “Cp(f)” value [15]?
Answer: The value was 372 nM.

Question: And the half-life [16]?
Answer: Its half-life is 1 h.

Question: And the solubility kinetic [17]?
Answer: The solubility kinetic was 94 µM (≈ 29.3 µg/mL).

Question: And the Tmax [18]?
Answer: Its Tmax is 1.25 h.

Question: And the Imax (HEK293)?
Answer: The Imax was 10.7%.

Question: And the Imax [19]?
Answer: Its Imax is 100%.

Question: What about the C0 [20] of the same compound?
Answer: The C0 was 304 ng/mL.

Question: What about the AUC(0-inf) [21] of the same compound?
Answer: Its AUC(0-inf) is 546 ng·h/mL.

Question: And the Imax [22]?
Answer: The Imax was 97%.

Question: And the Kp at 4 h [23]?
Answer: Its Kp at 4 h is 0.84.

Question: And the Cmax [24]?
Answer: The Cmax was 165 ng/mL.

Question: What about the microsomal CLint [25] of the same compound?
Answer: The microsomal CLint was less than 9.6 µL/min/mg.

Question: And the fraction unbound [26]?
Answer: Its fraction unbound is 0.136.

Question: What about the Cmax [27] of the same compound?
Answer: The Cmax was 241 ng/mL.

Question: What about the Vd [28] of the same compound?
Answer: Its Vd is 1.45 L/kg.

Question: What about the AUC [29] of the same compound?
Answer: Its AUC is 438 ng·h/mL.

Question: And the AUC(0-inf) [30]?
Answer: Its AUC(0-inf) is 782 ng·h/mL.

Question: What about the Kp uu at 4 h [31] of the same compound?
Answer: The Kp uu at 4 h was 0.66.

Question: And the Vd [32]?
Answer: Its Vd is 1.42 L/kg.

Question: And the Vd [33]?
Answer: The Vd was 1.85 L/kg.

Question: What about the AUC(0-inf) [34] of the same compound?
Answer: The AUC(0-inf) was 222 ng·h/mL.

Question: What about the Imax [35] of the same compound?
Answer: The Imax was 59.1%.

Question: And the AUC [36]?
Answer: Its AUC is 630 ng·h/mL.

Question: And the half-life [37]?
Answer: Its half-life is 1.9 h.

Question: What about the Tmax [38] of the same compound?
Answer: Its Tmax is 1 h.
